{
  "source": "paper PMC2390898",
  "about": "(Antiviral Research, 2006)",
  "key": {"[1]": {"system": "LANA", "type": "cell-based, Kaposi's sarcoma-associated herpesvirus (KSHV)"}, "[2]": {"system": "BCBL-1 cells", "settings": "for relative percentage of fluorescence intensity (cell viability): 1 h"}, "[3]": {"system": "RTA", "type": "cell-based, Kaposi's sarcoma-associated herpesvirus (KSHV)"}, "[4]": {"system": "RTA", "type": "cell-based, Kaposi's sarcoma-associated herpesvirus (KSHV)", "remark": "listed apart in the source"}, "[5]": {"system": "RTA", "type": "cell-based, Kaposi's sarcoma-associated herpesvirus (KSHV)", "remark": "listed apart in the source"}, "[6]": {"system": "RTA", "type": "cell-based, Kaposi's sarcoma-associated herpesvirus (KSHV)", "remark": "listed apart in the source"}, "[7]": {"system": "LP1/luciferase RNA", "test": "Cell-free reporter assay with LP1/luciferase RNA", "type": "biochemical, Kaposi's sarcoma-associated herpesvirus (KSHV)", "settings": "data not shown"}, "[8]": {"system": "ORF50 leader sequence (RP1 P-PMO target region)-luciferase RNA", "type": "biochemical, Kaposi's sarcoma-associated herpesvirus (KSHV)"}, "[9]": {"system": "BCBL-1 cells", "test": "PMO/P-PMO uptake and persistence in BCBL-1 cells", "type": "cell-based"}, "[10]": {"system": "KSHV", "type": "cell-based, Kaposi's sarcoma-associated herpesvirus (KSHV)"}},
  "note": "Where two headings read alike, the source gives them in different places.",
  "data": [
    {"compound": "CC(=O)N1C[C@@H](COP(=O)(N(C)C)N2C[C@@H](COP(=O)(N(C)C)N3C[C@@H](COP(=O)(N(C)C)N4C[C@@H](COP(=O)(N(C)C)N5C[C@@H](COP(=O)(N(C)C)N6C[C@@H](COP(=O)(N(C)C)N7C[C@@H](COP(=O)(N(C)C)N8C[C@@H](COP(=O)(N(C)C)N9C[C@@H](COP(=O)(N(C)C)N%10C[C@@H](COP(=O)(N(C)C)N%11C[C@@H](COP(=O)(N(C)C)N%12C[C@@H](COP(=O)(N(C)C)N%13C[C@@H](COP(=O)(N(C)C)N%14C[C@@H](COP(=O)(N(C)C)N%15C[C@@H](COP(=O)(N(C)C)N%16C[C@@H](COP(=O)(N(C)C)N%17C[C@@H](COP(=O)(N(C)C)N%18C[C@@H](COP(=O)(N(C)C)N%19C[C@@H](COP(=O)(N(C)C)N%20C[C@@H](COP(=O)(N(C)C)N%21CCN(C(=O)CCCN%22C(=O)CC(SC[C@H](NC(=O)[C@H](CCCNC(=N)N)NC(=O)[C@H](CCCNC(=N)N)NC(=O)[C@H](CCCNC(=N)N)NC(=O)[C@H](CCCNC(=N)N)NC(=O)[C@H](Cc%23ccccc%23)NC(=O)[C@H](Cc%23ccccc%23)NC(=O)[C@H](CCCNC(=N)N)NC(=O)[C@H](CCCNC(=N)N)NC(=O)[C@H](CCCNC(=N)N)NC(=O)[C@H](CCCNC(=N)N)NC(=O)[C@@H](N)CCCNC(=N)N)C(N)=O)C%22=O)CC%21)O[C@@H](n%21cnc%22c(=O)[nH]c(N)nc%22%21)C%20)O[C@@H](n%20cnc%21c(N)ncnc%21%20)C%19)O[C@@H](n%19cc(C)c(=O)[nH]c%19=O)C%18)O[C@@H](n%18cnc%19c(N)ncnc%19%18)C%17)O[C@@H](n%17cc(C)c(=O)[nH]c%17=O)C%16)O[C@@H](n%16cnc%17c(N)ncnc%17%16)C%15)O[C@@H](n%15ccc(N)nc%15=O)C%14)O[C@@H](n%14cnc%15c(N)ncnc%15%14)C%13)O[C@@H](n%13ccc(N)nc%13=O)C%12)O[C@@H](n%12cnc%13c(N)ncnc%13%12)C%11)O[C@@H](n%11cnc%12c(N)ncnc%12%11)C%10)O[C@@H](n%10ccc(N)nc%10=O)C9)O[C@@H](n9cnc%10c(N)ncnc%109)C8)O[C@@H](n8ccc(N)nc8=O)C7)O[C@@H](n7ccc(N)nc7=O)C6)O[C@@H](n6ccc(N)nc6=O)C5)O[C@@H](n5cnc6c(N)ncnc65)C4)O[C@@H](n4cnc5c(N)ncnc54)C3)O[C@@H](n3cc(C)c(=O)[nH]c3=O)C2)O[C@@H](n2cc(C)c(=O)[nH]c2=O)C1", "note": "(stereo partly drawn) [CP1]", "values": [
      {"measurement": "LANA staining by IFA after three treatments", "setting": "[1]", "value": "no detectable effect"},
      {"measurement": "cytotoxicity", "setting": "[2]", "value": "no detectable cytotoxicity"},
      {"measurement": "relative percentage of fluorescence intensity (cell viability)", "setting": "[2]; 8 μM", "value": 106, "unit": "%"},
      {"measurement": "relative percentage of fluorescence intensity (cell viability)", "setting": "[2]; 16 μM", "value": 107, "unit": "%"},
      {"measurement": "RTA flow cytometry profile", "setting": "[3]", "value": "same profile as the mock treatment control"},
      {"measurement": "change in RTA expression by Western blot", "setting": "[4]", "value": "no detectable change"},
      {"measurement": "RTA-positive cells by IFA", "setting": "[5]", "value": "approximately 20%"},
      {"measurement": "number of RTA-positive cells by IFA in BC-1 cells", "setting": "[6]", "value": "no effect"}
    ]},
    {"compound": "H-RRRRRFFRRRRC-NH2 [LP1]", "values": [
      {"measurement": "change in LANA level, recurrent application", "setting": "[1]", "value": "no change"},
      {"measurement": "effect on LANA expression, single application (IFA and Western blot)", "setting": "[1]", "value": "no effect"},
      {"measurement": "inhibition of translation in LP1/luciferase reporter system", "setting": "[7]", "value": "effective at inhibiting translation"},
      {"measurement": "effect on luciferase translation (negative control P-PMO)", "setting": "[8]", "value": "did not have any effect"}
    ]},
    {"compound": "H-RRRRRFFRRRRC-NH2 [LP2]", "values": [
      {"measurement": "LANA protein level (IFA and Western blot)", "setting": "[1]", "value": "caused reduction"},
      {"measurement": "LANA staining by IFA after three treatments", "setting": "[1]", "value": "much weaker"},
      {"measurement": "reduction in LANA protein level after the second application", "setting": "[1]", "value": "over 60%"}
    ]},
    {"compound": "H-RRRRRFFRRRRC-NH2 [P-PMO-F1]", "values": [
      {"measurement": "cells with green fluorescence at 24, 48 and 72 h (fluorescence microscopy)", "setting": "[9]; BCBL-1 cells treated 4 h with 8 μM, rinsed, harvested 24, 48 and 72 h later", "value": "almost all cells"},
      {"measurement": "cells with green fluorescence at 24, 48 and 72 h (flow cytometry)", "setting": "[9]; BCBL-1 cells treated 4 h with 8 μM, rinsed, harvested 24, 48 and 72 h later, all three time points", "value": "over 95%"},
      {"measurement": "fluorescence of cells by flow cytometry", "setting": "[9]; BCBL-1 cells, 8 μM, treated for 4 h, flow cytometry, 525 nm band pass filter", "value": "high percentage"},
      {"measurement": "green fluorescence in treated cells at day 7", "setting": "[9]; BCBL-1 cells, day 7 after treatment, reduced intensity, data not shown", "value": "still observed"}
    ]},
    {"compound": "H-RRRRRFFRRRRC-NH2 [mRP1]", "values": [
      {"measurement": "change in RTA expression by Western blot", "setting": "[4]", "value": "no effect"}
    ]},
    {"compound": "tetradecanoyl phorbol acetate [TPA, reference compound]", "values": [
      {"measurement": "RTA-positive cells by flow cytometry after TPA induction, no P-PMO", "setting": "[3]", "value": "approximately 25%"},
      {"measurement": "increase of KSHV viral DNA level by TPA induction, in cells", "setting": "[10]", "value": 1.84, "unit": "fold"},
      {"measurement": "increase of KSHV viral DNA level by TPA induction, in culture supernatant", "setting": "[10]", "value": 2.75, "unit": "fold"},
      {"measurement": "RTA-positive cells by IFA after TPA induction, no P-PMO", "setting": "[5]", "value": "approximately 20%"}
    ]}
  ]
}
